# Data: patent publication US4880791A, “Combination product composed of xanthine derivatives and O-acetylsalicylic acid or its pharmacologically tolerated salts, and its use” (priority 1984, dated 1989)
# Experiments:
# [1] = system: laser-induced thrombosis in the arterioles and venules of the rat mesentery; assay: laser-induced thrombosis in arterioles of the rat mesentery; type: in vivo, rat (female Sprague-Dawley); settings: for percentage improvement compared with the placebo controls: 10 mg/kg xanthine derivative and, 1 hour later, 1 mg/kg acetylsalicylic acid orally; for percentage improvement compared with the placebo controls / inhibition in vivo at 10 mg/kg: n = 3; for inhibition in vivo at 10 mg/kg: Rattus norvegicus, po, 10 mg/kg xanthine derivative orally, read-out: percentage improvement compared with the placebo controls; for Changes from controls, % / Changes from controls, absolute / Number of shots: single substance
# Procedure: The evaluation was carried out by analysis by vital microscopy (Nature, 218 (1968) 887 and Haemostasis 13 (1983) 61 and IRCS Med. Sci. 12 (1984) 91).
# The test substances were administered in 0.9% sodium chloride solution (which contained 1% carboxymethylcellulose (Serva, Heidelberg)) either orally, intraperitoneally or intravenously. Control animals were treated in the corresponding manner but without the test substances. The experimental animals used were male or female Sprague-Dawley or Wistar rats.
# The animals which were to be investigated underwent s.c. premedication with 0.1 mg of atropine sulfate in solution and were anesthetized with 100 mg of ketamine hydrochloride and 4 mg of xylazine per kg of body weight i.p. The investigation made use of arterioles and venules of the mesentery, which was coated with degassed liquid paraffin, having a diameter of about 13 μm. The beam of a 4 W argon laser (supplied by Spectra Physics, Darmstadt) was introduced coaxially, by means of a beam adaptation and adjustment system (supplied by BTG, Munich), into the inverted optical path of a microscope (ICM 405, LD-Epipland 40/0.60; supplied by Zeiss, Oberkochen). The wavelength used was 514.5 nm, with an energy above the objective of 30.5 mW. The exposure time per single shot was 1/15 sec. All the measuring operations were recorded by video camera (Trinicon tube, Sony, Cologne) and stored in a recorder (Sony, U-matic 3/4"). The test substances were administered in various doses to the experimental animals, orally one hour, and on i.v. administration 10 min., before the start of the experiment, control animals receiving the same amount of placebo.
# The number of shots needed to induce a defined thrombus is counted.
# The results of the experiment were subjected to statistical analysis using the .chi.^2 test (L. Cavalli-Sforza, Biometrie (Biostatistics), Stuttgart, 1969, pages 49 et seq.). […]
# platelet aggregation = assay: ex vivo platelet aggregation (arachidonic acid, Born aggregometer); type: in vivo, rabbit
# [2] = system: erythrocyte filterability; assay: erythrocyte filterability in adjuvant arthritis rats; type: in vivo, rat; settings: oral 21 days
# Procedure: (§1) The hemorheological, antithrombotic, antiaggregatory and antiinflammatory effects of the combinations according to the invention were investigated after oral administration for 21 days in the pathological model of adjuvant arthritis (induced with Mycobacterium butyricum) is the rat by the method of Clincal Hemorheology 3 (1983) 469-480, and were compared with those of the appropriate individual substances. Blood was taken from the thoracic aorta 1 hour after the last administration of substance. All the details of the determination of the hemorheological effect were as described in Clinical Hemorheology 4 (1984) 263-273. The erythocyte deformability was quantitatively determined in a filtrometer (Myrenne MF 4, Roetgen, Germany) by evaluation of the initial gradient of the flow curve.
# rat aortas = rat aortas ex vivo, treatment of the animals; cited from earlier work
# [3] = system: adjuvant arthritis (Mycobacterium butyricum) in the rat; assay: antiinflammatory effect in adjuvant arthritis (paw edema, necrosis index); type: in vivo; settings: 30 mg
# Procedure: as §1
# The antiflammatory effect was quantitatively measured, as quoted above, using the volume of the edema of the paw and using the standard necrosis index.
# erythrocytes = settings: treatment with pentoxifylline; cited from earlier work
# [4] = system: induced platelet aggregation; assay: collagen-induced platelet aggregation in arthritic rats; type: in vivo, rat; settings: 30 mg, oral 21 days
# Procedure: as §1
# The measurements of platelet aggregation were carried out as described above in detail. However, instead of arachidonic acid 0.04 mg of collagen was used to induce platelet aggregation in 1 ml of platelet-rich plasma (PA II aggregometer from Myrenne, Roetgen).
# platelets = settings: only at concentrations above those used in medicinal treatment; cited from earlier work
# [5] = system: tendency to thrombosis in arthritic rat; assay: laser-induced tendency to thrombosis in arthritic rats; type: in vivo; settings: 30 mg, oral 21 days
# Procedure: as §1
# The antithrombotic effect was measured using the laser model as described above.
smiles,measurement,setting,value
CC(C)Cn1c(=O)c2c(ncn2CCCCC(C)O)n(C)c1=O (stereo not drawn) [1-(2-Methylpropyl)-3-methyl-7-(5-hydroxyhexyl)-xanthine],percentage improvement compared with the placebo controls,[1],39%
same,inhibition in vivo at 10 mg/kg,[1],29%
CC(=O)CCCCn1cnc2c1c(=O)n(CC(C)C)c(=O)n2C [1-(2-Methylpropyl)-3-methyl-7-(5-oxohexyl-)-xanthine],percentage improvement compared with the placebo controls,[1],39%
same,inhibition in vivo at 10 mg/kg,[1],28%
CC(C)CCn1c(=O)c2c(ncn2CCCCC(C)O)n(C)c1=O (stereo not drawn) [1-(3-Methylbutyl)-3-methyl-7-(5-hydroxyhexyl-)-xanthine],percentage improvement compared with the placebo controls,[1],37%
same,inhibition in vivo at 10 mg/kg,[1],28%
CC(=O)CCCCn1cnc2c1c(=O)n(CCC(C)C)c(=O)n2C [1-(3-Methylbutyl-3-methyl-7-(5-oxo-hexyl)-xanthine],percentage improvement compared with the placebo controls,[1],35%
same,inhibition in vivo at 10 mg/kg,[1],26%
CCCn1cnc2c1c(=O)n(CCC(C)=O)c(=O)n2C [1-(3-Oxobutyl)-3-methyl-7-propyl-xanthine],percentage improvement compared with the placebo controls,[1],49%
same,inhibition in vivo at 10 mg/kg,[1],40%
"CC(O)CCCCn1c(=O)c2c(ncn2C)n(C)c1=O (stereo not drawn) [1-(5-Hydroxyhexyl)-3,7-dimethyl-xanthine, 1-(5-hydroxyhexyl)-3,7-dimethylxanthine]",percentage improvement compared with the placebo controls,[1],68%
same,inhibition in vivo at 10 mg/kg,[1],52%
CC(C)Cn1cnc2c1c(=O)n(CCCCC(C)O)c(=O)n2C (stereo not drawn) [1-(5-Hydroxyhexyl)-3-methyl-7-(2-methyl-propyl)-xanthine],percentage improvement compared with the placebo controls,[1],34%
same,inhibition in vivo at 10 mg/kg,[1],23%
CCCn1cnc2c1c(=O)n(CCCCC(C)O)c(=O)n2C (stereo not drawn) [1-(5-Hydroxyhexyl)-3-methyl-7-propylxanthine],percentage improvement compared with the placebo controls,[1],53%
same,inhibition in vivo at 10 mg/kg,[1],40%
CC(=O)CCCCn1c(=O)c2c(ncn2CC(C)C)n(C)c1=O [1-(5-Oxohexyl)-3-methyl-7-(2-methyl-propyl-)-xanthine],percentage improvement compared with the placebo controls,[1],39%
same,inhibition in vivo at 10 mg/kg,[1],28%
CCCn1cnc2c1c(=O)n(CCCCC(C)=O)c(=O)n2C [1-(5-Oxohexyl)-3-methyl-7-propylxanthine],percentage improvement compared with the placebo controls,[1],56%
same,inhibition in vivo at 10 mg/kg,[1],42%
CC(O)CCCCn1cnc2c1c(=O)n(C(C)C)c(=O)n2C (stereo not drawn) [1-(Isopropyl)-3-methyl-7-(5-hydroxy-hexyl-)-xanthine],percentage improvement compared with the placebo controls,[1],36%
same,inhibition in vivo at 10 mg/kg,[1],31%
CCn1c(=O)c2c(ncn2CCCCC(C)=O)n(CC)c1=O [1-Ethyl-3-ethyl-7-(5-oxohexyl-)-xanthine],percentage improvement compared with the placebo controls,[1],48%
same,inhibition in vivo at 10 mg/kg,[1],41%
"CCCCCCn1c(=O)c2c(ncn2C)n(C)c1=O [1-Hexyl-3,7-dimethylxanthine]",percentage improvement compared with the placebo controls,[1],46%
same,inhibition in vivo at 10 mg/kg,[1],39%
CCCn1c(=O)c2c(ncn2CCCCC(C)O)n(C)c1=O (stereo not drawn) [1-Propyl-3-methyl-7-(5-hydroxyhexyl-)-xanthine],percentage improvement compared with the placebo controls,[1],42%
same,inhibition in vivo at 10 mg/kg,[1],35%
CCCCn1c(=O)c2c(ncn2CC(C)=O)n(CCCC)c1=O [1-n-Butyl-3-n-butyl-7-(2-oxopropyl-)-xanthine],percentage improvement compared with the placebo controls,[1],50%
same,inhibition in vivo at 10 mg/kg,[1],33%
"CC(=O)Oc1ccccc1C(=O)O [DL-Lysine monoacetylsalicylate, D,L-lysine monoacetylsalicylate]",Aggregation amplitude E ex vivo,"platelet aggregation; I, at 30 min, 1,5 mg/kg i.v. at 15 min","23,5"
same,Aggregation amplitude E ex vivo,"platelet aggregation; I, at 45 min, 1,5 mg/kg i.v. at 15 min and 0,5 mg/kg at 35 min","19,5"
"CC(=O)CCCCn1c(=O)c2c(ncn2C)n(C)c1=O [Pentoxifylline, 1-(5-oxohexyl)-3,7-dimethylxanthine]",erythrocyte filterability,[2]; 30 mg,79%
same,erythrocyte filterability in arthritic rats (in words),[2],can be increased again
same,release of a substance having antiaggregatory activity,rat aortas,can be increased
same,"Changes from controls, %",[1]; 5 mg/kg oral,21%
same,"Changes from controls, absolute",[1]; 5 mg/kg oral,"0,46"
same,Number of shots,[1]; 5 mg/kg oral,"2,63"
same,"Changes from controls, %",[1]; 10 mg/kg oral,54%
same,"Changes from controls, absolute",[1]; 10 mg/kg oral,"1,16"
same,Number of shots,[1]; 10 mg/kg oral,"3,33"
same,"Changes from controls, %",[1]; 30 mg/kg oral,83%
same,"Changes from controls, absolute",[1]; 30 mg/kg oral,"1,8"
same,Number of shots,[1]; 30 mg/kg oral,"3,97"
same,-x (number of shots),"[1]; Table 1b, 10 mg/kg pentoxifylline orally without acetylsalicylic acid","3,27"
same,% change from controls,"[1]; Table 1b, 10 mg/kg pentoxifylline orally without acetylsalicylic acid, p < 0,05",+49%
same,effect in laser-induced thrombosis,[1]; oral dose 10 mg/kg,significant effect
same,effect in laser-induced thrombosis,[1]; single oral dose 5 mg/kg,not significant
same,inhibition of thrombus formation,[1]; single oral dose 5 mg/kg,20%
same,"Percentage improvement, volume of paw edema, left paw",[3],3%
same,"Percentage improvement, volume of paw edema, right paw",[3],0%
same,Aggregation amplitude E ex vivo,"platelet aggregation; III, at 45 min, 10 mg/kg i.v. at 15 min",22
same,Aggregation amplitude E ex vivo,"platelet aggregation; III, at 120 min, 10 mg/kg i.v. at 15 min and 10 mg/kg at 60 min",20
same,deformability of the erythrocytes,erythrocytes,improved
same,induced platelet aggregation,[4],94%
same,in vitro aggregation of platelets,platelets,can be inhibited
same,tendency to thrombosis (number of shots),[5],87%
